These results are taken from US4642355A, “Proline derivatives” (Otsuka Pharmaceutical Factory, Inc., priority 1984, dated 1987).

The target in test [1] is T1, angiotensin-converting enzyme (ACE) (Oryctolagus cuniculus, UniProt P12822).
T1 construct: enzyme solution prepared from rabbit lung acetone powder; tissue Sigma Chemical Co., Ltd., U.S.A; host or cells: rabbit lung (acetone powder)
T1 sequence (P12822 34-1310): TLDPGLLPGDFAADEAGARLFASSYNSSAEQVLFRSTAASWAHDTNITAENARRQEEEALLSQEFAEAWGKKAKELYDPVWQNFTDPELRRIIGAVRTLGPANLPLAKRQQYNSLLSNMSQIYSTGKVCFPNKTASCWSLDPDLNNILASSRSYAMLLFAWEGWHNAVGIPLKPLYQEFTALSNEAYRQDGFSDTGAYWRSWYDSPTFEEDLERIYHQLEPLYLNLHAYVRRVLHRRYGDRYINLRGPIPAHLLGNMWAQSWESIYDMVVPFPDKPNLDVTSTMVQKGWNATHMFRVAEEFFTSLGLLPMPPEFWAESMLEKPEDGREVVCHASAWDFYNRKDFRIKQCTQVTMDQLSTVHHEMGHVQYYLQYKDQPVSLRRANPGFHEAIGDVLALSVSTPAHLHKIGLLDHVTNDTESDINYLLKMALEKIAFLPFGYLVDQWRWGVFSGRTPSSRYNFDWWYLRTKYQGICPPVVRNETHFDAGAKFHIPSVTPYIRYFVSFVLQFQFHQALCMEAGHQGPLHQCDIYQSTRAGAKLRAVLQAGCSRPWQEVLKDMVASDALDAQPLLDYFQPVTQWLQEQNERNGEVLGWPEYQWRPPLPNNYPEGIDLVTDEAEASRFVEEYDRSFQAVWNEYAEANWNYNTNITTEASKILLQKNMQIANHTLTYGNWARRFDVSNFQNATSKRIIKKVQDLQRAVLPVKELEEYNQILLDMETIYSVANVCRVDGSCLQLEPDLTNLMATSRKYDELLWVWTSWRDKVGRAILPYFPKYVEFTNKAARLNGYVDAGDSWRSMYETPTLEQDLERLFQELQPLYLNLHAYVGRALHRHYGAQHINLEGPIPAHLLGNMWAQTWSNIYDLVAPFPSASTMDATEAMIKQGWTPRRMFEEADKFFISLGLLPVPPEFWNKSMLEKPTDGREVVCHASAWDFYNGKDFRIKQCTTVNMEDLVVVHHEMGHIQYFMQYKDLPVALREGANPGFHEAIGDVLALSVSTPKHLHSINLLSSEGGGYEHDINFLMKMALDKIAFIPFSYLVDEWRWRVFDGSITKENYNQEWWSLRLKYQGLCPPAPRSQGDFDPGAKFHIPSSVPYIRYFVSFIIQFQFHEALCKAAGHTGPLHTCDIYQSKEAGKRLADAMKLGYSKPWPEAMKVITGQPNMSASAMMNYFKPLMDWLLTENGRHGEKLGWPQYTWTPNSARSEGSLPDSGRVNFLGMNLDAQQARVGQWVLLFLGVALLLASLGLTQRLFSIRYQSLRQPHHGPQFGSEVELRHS
In words: Inhibitory activity against angiotensin-converting enzyme (ACE). Format: biochemical, rabbit. Conditions: for ACE inhibitory activity higher than Test Compound No. 4 (fold): compared with Test Compound No. 4; for IC50: enzyme from rabbit lung acetone powder, substrate hippurylhistidyl-leucine, 37° C. The protocol:
Inhibitory activity against angiotensin-converting enzyme (ACE)
A 100 μl quantity of an enzyme solution prepared from rabbit lung acetone powder (product of Sigma Chemical Co., Ltd., U.S.A.) was mixed with 100 μl of a sample solution. The mixture was gently shaken at 37° C. for 10 minutes. To the reaction mixture was added 100 μl of a solution containing 6.99 mM of hippurylhistidyl-leucine (product of Peptide Institute, Inc., Japan) as a substrate. The mixture was reacted at 37° C. for 45 minutes while being shaken. The reaction was terminated by addition of 200 μl of a 1N sulfuric acid aqueous solution to the reaction mixture. Sodium chloride (saturation amount) and diethyl ether (2 ml) were added to the reaction mixture to extract the hippuric acid formed by the reaction. The resulting mixture was vigorously shaken for 15 minutes and centrifuged at 2000 rpm for 5 minutes. A 1.5 ml quantity of the ether layer was separated. After the solvent was distilled off, the residue was redissolved in 1.5 ml of distilled water and the absorbance at 228 nm was measured. A control was prepared by repeating the same procedure as above except that 100 μl of distilled water was used in place of the sample solution.
The inhibitory activity was calculated by deducting the absorbance value of the residue formed by addition of the sample solution from that of the control, and the resulting value was divided by the absorbance value of the control and multiplied by 100, thereby giving a percent inhibition. The inhibitory activity was expressed as IC50, i.e., the concentration of the sample solution in the reaction mixture in which concentration 50% inhibition is achieved.
The test compounds used in the experiment are shown below.

In test [2] the test system is angiotensin-converting enzyme (ACE). In words: ACE inhibitory effect in normotensive rats (inhibition of pressor response to angiotensin I). The test is classed as in vivo. The note with it: 1 mg/kg directly to the stomach, male Wistar rats, urethane anesthesia, AI/AII ratio. As to the method:
ACE Inhibitory effect in normotensive rats
Male Wistar rats weighing 200 to 400 g were anesthetized by the intraperitoneal injection of urethane (1.25 g/kg) and held in the supine position. The degree of inhibition of pressor response to angiotensin (A) I was determined using these rats. The blood pressure was measured with a femoral artery cannula connected to a transducer (product of Nihon Kohden Kabushiki Kaisha, Japan, Model MPU-0.5-290-0-III) and recorded in terms of a mean blood pressure value through a carrier amplifier (product of Nihon Kohden Kabushiki Kaisha, Japan, Model RP-5) on a multipurpose polygraph (product of Nihon Kohden Kabushiki Kaisha, Japan, Model RM-85). The rats were set in an experimental device and left therein for 1 hour to stabilize the hemodynamics. Then experiments were commenced. Since the magnitude of the pressor response to AI varies with time, the ratio of the responses to AI and AII (AI/AII ratio) was used to determine the magnitude of the pressor response to AI which ratio remained more constant. Through the cannulated femoral vein, AI (300 ng/kg) was administered first and AII (300 ng/kg) was given in 5 minutes to measure an AI/AII ratio. At 30 minutes after the first administration of AI, AI (300 ng/kg) was similarly administered and AII (300 ng/kg) was given in 5 minutes, followed by measuring an AI/AII ratio. This procedure was repeated until a constant value of AI/AII ratio was obtained. (The mean value of AI/AII ratios each resulting from the repeated procedure is represented as "C" in an equation to be shown later). At 10 minutes after the final administration of AII, an aqueous solution containing 1 mg/kg of each test compound was given directly to the stomach through a vinyl tube. At 10 minutes after administration of the test compound, AI (300 ng/kg) was given and at 5 minutes later, AII (300 ng/kg) was administered, followed by measurement of the AI/AII ratio (which was represented as "E" in the following equation). An ACE percent inhibition was calculated according to the equation indicated below. [formula]
Subsequently at each time of 60, 120 and 240 minutes after the administration of the test compound, AI (300 ng/kg) was given in the same manner as above and AII (300 ng/kg) was administered in 5 minutes, whereupon an ACE percent inhibition was calculated in the same way.
The results are shown below in Table 26 in which the test compounds listed are those prepared in the Examples indicated therein.

Where a name gives a salt, the structure may show the parent alone.

For orientation: IC50 means the concentration needed to halve the response being measured. Read a high IC50 as a need for much substance. For the compound `CCCCCCSC[C@H](NC(C)C(=O)N1CCC[C@H]1C(=O)O)C(=O)O` (single isomer, unassigned) [Test Compound 1], in test [1], the “ACE inhibitory activity higher than Test Compound No. 4 (fold)” value is listed as “about 24 times” and the concentration for half-maximal inhibition (IC50) amounted to 0.521 nM.

For `CCCCCCSC[C@H](NC(C)C(=O)N1CCC[C@H]1C(=O)O)C(=O)O` (single isomer, unassigned) [Test Compound 2], in test [1], the “ACE inhibitory activity higher than Test Compound No. 4 (fold)” value is “about 9.4 times” and the IC50 was 1.35 nM.

On to `CCCCCSC[C@H](NC(C)C(=O)N1CCC[C@H]1C(=O)O)C(=O)O` (stereo partly drawn) [Test Compound 3, N--[(R)--1-carboxy-2-pentylthioethyl]-alanyl-(S)--proline (β-isomer)], for which, in test [1], the “ACE inhibitory activity higher than Test Compound No. 4 (fold)” value is listed as “about 122 times” and 0.104 nM corresponded to half-maximal inhibition (IC50).

In the case of `CSCC[C@H](NC(C)C(=O)N1CCC[C@H]1C(=O)O)C(=O)O` (stereo partly drawn) [Test Compound 4, N--[(S)--1-carboxy-3-methylthiopropyl]-(R,S)--alanyl-(S)--proline, reference compound], in test [1], 12.7 nM corresponded to half-maximal inhibition (IC50).

`COC(=O)[C@H](CCSC)NC(C)C(=O)N1CCC[C@H]1C(=O)O` (stereo partly drawn) [Test Compound 5, N--[(S)--1-methoxycarbonyl-3-methylthiopropyl]-(R,S)--alanyl-(S)--proline hydrochloride, reference compound]: the “ACE Percent Inhibition, mean ± SD” value is listed as 1 ± 5% in test [2] (15 min. after administration), 6 ± 4% in test [2] (60 min. after administration), 7 ± 6% in test [2] (120 min. after administration) and 9 ± 1% in test [2] (240 min. after administration). The IC50 in test [1] amounted to 5240 nM.
